Measured values taken from ChEMBL document CHEMBL5365429, “Discovery of 5-sulfonyltetrazoles as neuroblastoma differentiation agents” (Bioorg Med Chem Lett, 2023).
Calls of active or inactive are those of the source. No cut-off for these calls is given here.

Legend:
Format in all cases: functional, cell-based
BE(2)-C [1] = test: Induction of neuron differentiation in human BE2C cells assessed as neurite outgrowth by measuring neurite length at 25 uM measured after 4 days; details: time 4.0 day
BE(2)-C [2] = test: Antiproliferative activity against human BE2C cells assessed as reduction in cell viability at 25 uM measured after 4 days; details: time 4.0 day
BE(2)-C [3] = test: Induction of neuron differentiation in human BE2C cells assessed as neurite outgrowth by measuring neurite length; details: dose 50-200 µM
BE(2)-C [4] = test: Induction of neuron differentiation in human BE2C cells assessed as neurite outgrowth by measuring neurite length at 25 uM by imaging analysis
BE(2)-C [5] = test: Induction of neuron differentiation in human BE2C cells assessed as neurite outgrowth by measuring neurite length at 25 uM
BE(2)-C [6] = test: Antiproliferative activity against human BE2C cells assessed as reduction in cell viability at 25 uM
BE(2)-C [7] = test: Antiproliferative activity against human BE2C cells assessed as reduction in cell viability; details: dose 50-200 µM

| Structure (SMILES) | Activity (BE(2)-C [1]) | further results |
| --- | --- | --- |
| Cn1nnnc1SCC#C[Si](C)(C)C | inactive |  |
| CSc1nnnn1C | inactive |  |
| Cn1nnnc1SCC1CC1 | inactive |  |
| CCSc1nnnn1C | inactive |  |
| CCCSc1nnnn1C | inactive |  |
| C=CCSc1nnnn1C | inactive |  |
| CCCS(=O)(=O)c1nnnn1C | Active |  |
| C=CCS(=O)(=O)c1nnnn1C | Active | Activity (BE(2)-C [2]): Active |
| Cn1nnnc1S(=O)(=O)CC1CCC1 | Active |  |
| CCS(=O)(=O)c1nnnn1C |  | Activity (BE(2)-C [3]): Dose-Dependent Effect; Activity (BE(2)-C [4]): Active; Activity (BE(2)-C [5]): Active; Activity (BE(2)-C [6]): Active; Activity (BE(2)-C [7]): Dose-Dependent Effect |
| Cn1nnnc1S(C)(=O)=O | Active |  |
| Cn1nnnc1SCC1CCC1 | inactive |  |
